T/C data for 13 molecules are collected here from PubChem BioAssay AID342 (DTP/NCI, 2004).

As a reminder, the T/C is the ratio of treated to control.

Where “and” joins values, the source holds several entries; their conditions need not be identical. Equal entries are not always repeated.

The test deals with Swiss mice, Sarcoma 180 sc, mean tumor weight T/C. In words: NCI In Vivo Anticancer Drug Screen. Data for tumor model Sarcoma 180 (subcutaneous) in Swiss mice. Particulars: endpoint: mean tumor weight, higher = larger tumour. An outline of the steps:
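Mice bearing transplanted tumors were treated with compound, and survival or tumor size was measured. Values are expressed as the treated-group measurement (T) divided by the vehicle-treated control measurement (C).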

With `Cc1ccc(NC(C(=O)c2ccccc2)c2ccccc2)cc1` (stereo unspecified), the T/C (dose: 150.0 mg/kg/injection, schedule: Q01DX007 (ip), vehicle: saline) was 39 % of control and the T/C (dose: 225.0 mg/kg/injection, schedule: Q01DX007 (ip), vehicle: saline) was 20 % of control.
In the case of `CN(Cc1cnc2nc(N)nc(N)c2n1)c1ccc(C(=O)N[C@@H](CCC(=O)O)C(=O)O)cc1`, the T/C is, setting by setting: (dose: 0.12 mg/kg/injection, schedule: Q01DX007 (ip), vehicle: water) 101 % of control; (dose: 0.12 mg/kg/injection, schedule: Q#A X014 (ip), vehicle: carboxymethylcellulose (CMC)) 123 % of control; (dose: 0.25 mg/kg/injection, schedule: Q01DX007 (ip), vehicle: water) 57 % of control; (dose: 0.25 mg/kg/injection, schedule: Q#A X014 (ip), vehicle: carboxymethylcellulose (CMC)) 121 % of control; (dose: 0.5 mg/kg/injection, schedule: Q01DX007 (ip), vehicle: carboxymethylcellulose (CMC)) 95 % of control and 110 % of control; (dose: 0.5 mg/kg/injection, schedule: Q#A X014 (ip), vehicle: carboxymethylcellulose (CMC)) 73 % of control. Further, the T/C was 119 % of control (dose: 0.76 mg/kg/injection, schedule: Q01DX007 (ip), vehicle: carboxymethylcellulose (CMC)); 107 % of control (dose: 1.0 mg/kg/injection, schedule: Q01DX007 (ip), vehicle: carboxymethylcellulose (CMC)); 68 % of control (dose: 1.26 mg/kg/injection, schedule: Q01DX007 (ip), vehicle: carboxymethylcellulose (CMC)); 78 % of control and 86 % of control (dose: 1.5 mg/kg/injection, schedule: Q01DX007 (ip), vehicle: carboxymethylcellulose (CMC)); 68 % of control (dose: 1.9 mg/kg/injection, schedule: Q01DX007 (ip), vehicle: carboxymethylcellulose (CMC)); 105 % of control (dose: 237.0 micrograms/kg/injection, schedule: Q01DX007 (ip), vehicle: carboxymethylcellulose (CMC)). The T/C is, setting by setting: (dose: 475.0 micrograms/kg/injection, schedule: Q01DX007 (ip), vehicle: carboxymethylcellulose (CMC)) 104 % of control; (dose: 950.0 micrograms/kg/injection, schedule: Q01DX007 (ip), vehicle: carboxymethylcellulose (CMC)) 83 % of control; (dose: 1900.0 micrograms/kg/injection, schedule: Q01DX007 (ip), vehicle: carboxymethylcellulose (CMC)) 32 % of control.
For the molecule `CC(=O)[C@@]1(O)CC[C@H]2[C@@H]3CCC4=CC(=O)CC[C@]4(C)[C@@]3(F)[C@@H](O)C[C@@]21C`, the T/C is 67 % of control (dose: 12.0 mg/kg/injection, schedule: Q01DX007 (sc), vehicle: steriod suspending solution); 69 % of control (dose: 25.0 mg/kg/injection, schedule: Q01DX007 (sc), vehicle: steriod suspending solution); 40 % of control (dose: 55.0 mg/kg/injection, schedule: Q01DX007 (sc), vehicle: steriod suspending solution); 40 % of control and 42 % of control (dose: 111.0 mg/kg/injection, schedule: Q01DX007 (sc), vehicle: steriod suspending solution); 61 % of control (dose: 166.0 mg/kg/injection, schedule: Q01DX007 (sc), vehicle: steriod suspending solution); 58 % of control (dose: 250.0 mg/kg/injection, schedule: Q01DX007 (sc), vehicle: steriod suspending solution). Moreover, for the setting “dose: 375.0 mg/kg/injection, schedule: Q01DX007 (sc), vehicle: steriod suspending solution”, the T/C was 44 % of control.
For `Cn1c(N)nc2nc[nH]c2c1=S`, the T/C was 108 % of control (dose: 1.35 mg/kg/injection, schedule: Q#A X014 (ip), vehicle: methylcellulose (MC)); 45 % of control (dose: 2.0 mg/kg/injection, schedule: Q#A X014 (ip), vehicle: methylcellulose (MC)); 67 % of control (dose: 3.0 mg/kg/injection, schedule: Q#A X014 (ip), vehicle: methylcellulose (MC)); 37 % of control (dose: 4.5 mg/kg/injection, schedule: Q#A X014 (ip), vehicle: methylcellulose (MC)).
`COc1cc(C[C@H]2c3cc(OC)c(OC)cc3CCN2C)c(Oc2cc3c(cc2OC)-c2c(OC)c(OC)cc4c2[C@H](C3)N(C)CC4)cc1OC`: the T/C is, setting by setting: (dose: 7.8 mg/kg/injection, schedule: Q01DX007 (ip), vehicle: saline) 96 % of control; (dose: 15.6 mg/kg/injection, schedule: Q01DX007 (ip), vehicle: saline) 77 % of control; (dose: 31.3 mg/kg/injection, schedule: Q01DX007 (ip), vehicle: saline) 78 % of control; (dose: 62.5 mg/kg/injection, schedule: Q01DX007 (ip), vehicle: saline) 57 % of control and 68 % of control; (dose: 125.0 mg/kg/injection, schedule: Q01DX007 (ip), vehicle: saline) 63 % of control.
For `O=[N+]([O-])c1ccc(/C=N\Nc2ccc([N+](=O)[O-])cn2)cc1`, the T/C is, setting by setting: (dose: 5.1 mg/kg/injection, schedule: Q#A X014 (ip), vehicle: methylcellulose (MC)) 88 % of control; (dose: 10.25 mg/kg/injection, schedule: Q#A X014 (ip), vehicle: methylcellulose (MC)) 61 % of control; (dose: 12.0 mg/kg/injection, schedule: Q#A X014 (ip), vehicle: methylcellulose (MC)) 98 % of control; (dose: 20.55 mg/kg/injection, schedule: Q#A X014 (ip), vehicle: methylcellulose (MC)) 64 % of control; (dose: 41.1 mg/kg/injection, schedule: Q#A X014 (ip), vehicle: methylcellulose (MC)) 47 % of control.
As for `Clc1c(Cl)c(Cl)c(SCc2ccccc2)c(Cl)c1Cl`, the T/C is 83 % of control (dose: 111.0 mg/kg/injection, schedule: Q#A X014 (ip), vehicle: saline); 70 % of control (dose: 166.5 mg/kg/injection, schedule: Q#A X014 (ip), vehicle: saline); 42 % of control (dose: 250.0 mg/kg/injection, schedule: Q#A X014 (ip), vehicle: saline); 38 % of control (dose: 375.0 mg/kg/injection, schedule: Q#A X014 (ip), vehicle: saline).
In the case of `O=C1Cc2ccccc2C(=O)N1`, the T/C is, setting by setting: (dose: 15.0 mg/kg/injection, schedule: Q#A X014 (ip), vehicle: carboxymethylcellulose (CMC)) 84 % of control; (dose: 30.0 mg/kg/injection, schedule: Q#A X014 (ip), vehicle: carboxymethylcellulose (CMC)) 79 % of control.
On to `C[C@]12CC[C@H](O)C[C@H]1CC[C@@H]1[C@@H]2CC[C@]2(C)[C@@H](C3=CC(=O)OC3)CC[C@]12O`, for which the T/C was 79 % of control (dose: 5.0 mg/kg/injection, schedule: Q01DX007 (ip), vehicle: carboxymethylcellulose (CMC)); 68 % of control (dose: 10.0 mg/kg/injection, schedule: Q01DX007 (ip), vehicle: carboxymethylcellulose (CMC)); 86 % of control (dose: 25.0 mg/kg/injection, schedule: Q01DX007 (ip), vehicle: carboxymethylcellulose (CMC)).
Regarding `OC1C(O)C(O)C2(CO2)C(O)C1O` (stereo unspecified), the T/C reads like this: (dose: 150.0 mg/kg/injection, schedule: Q#A X014 (ip), vehicle: saline) 122 % of control; (dose: 300.0 mg/kg/injection, schedule: Q#A X014 (ip), vehicle: saline) 79 % of control.
As to `O=c1[nH]c2cc(Cl)c(Cl)cc2o1`, the T/C (dose: 19.0 mg/kg/injection, schedule: Q01DX007 (ip), vehicle: carboxymethylcellulose (CMC)) was 83 % of control; the T/C (dose: 37.5 mg/kg/injection, schedule: Q01DX007 (ip), vehicle: carboxymethylcellulose (CMC)) is 90 % of control; the T/C (dose: 75.0 mg/kg/injection, schedule: Q01DX007 (ip), vehicle: carboxymethylcellulose (CMC)) was 94 % of control; the T/C (dose: 150.0 mg/kg/injection, schedule: Q01DX007 (ip), vehicle: carboxymethylcellulose (CMC)) is 81 % of control.
In the case of `C[C@@H]1C[C@@H]([C@H](O)CC2CC(=O)NC(=O)C2)C(=O)[C@@H](C)C1`, the T/C reads like this: (dose: 3.0 mg/kg/injection, schedule: Q#A X014 (ip), vehicle: carboxymethylcellulose (CMC)) 79 % of control and 92 % of control; (dose: 6.25 mg/kg/injection, schedule: Q#A X014 (ip), vehicle: carboxymethylcellulose (CMC)) 77 % of control; (dose: 9.6 mg/kg/injection, schedule: Q01DX007 (ip), vehicle: carboxymethylcellulose (CMC)) 85 % of control and 96 % of control and 106 % of control; (dose: 12.0 mg/kg/injection, schedule: Q01DX007 (ip), vehicle: carboxymethylcellulose (CMC)) 100 % of control (2×) and 122 % of control; (dose: 12.0 mg/kg/injection, schedule: Q#A X014 (ip), vehicle: carboxymethylcellulose (CMC)) 38 % of control and 63 % of control; (dose: 12.5 mg/kg/injection, schedule: Q#A X014 (ip), vehicle: carboxymethylcellulose (CMC)) 68 % of control. The T/C (dose: 24.0 mg/kg/injection, schedule: Q01DX007 (ip), vehicle: carboxymethylcellulose (CMC)) was 58 % of control and 60 % of control and 65 % of control.
Turning to `CNCc1ccccc1`, for the setting “dose: 146.5 mg/kg/injection, schedule: Q01DX007 (ip), vehicle: carboxymethylcellulose (CMC)”, the T/C is 91 % of control.
